Results reported in patent US10975048B2, “Composition of 1,3,4-selenadiazole containing compounds with pharmacological activity” (HANGZHOU JENNIFER BIOTECH CO., LTD, priority 2015, dated 2021).
Where two headings read alike, the source gives them in different places.

Legend:
KGA = target: T1, KGA (Homo sapiens, UniProt O94925); assay: KGA inhibition IC50; assay type: biochemical
T1 sequence (O94925 55-669): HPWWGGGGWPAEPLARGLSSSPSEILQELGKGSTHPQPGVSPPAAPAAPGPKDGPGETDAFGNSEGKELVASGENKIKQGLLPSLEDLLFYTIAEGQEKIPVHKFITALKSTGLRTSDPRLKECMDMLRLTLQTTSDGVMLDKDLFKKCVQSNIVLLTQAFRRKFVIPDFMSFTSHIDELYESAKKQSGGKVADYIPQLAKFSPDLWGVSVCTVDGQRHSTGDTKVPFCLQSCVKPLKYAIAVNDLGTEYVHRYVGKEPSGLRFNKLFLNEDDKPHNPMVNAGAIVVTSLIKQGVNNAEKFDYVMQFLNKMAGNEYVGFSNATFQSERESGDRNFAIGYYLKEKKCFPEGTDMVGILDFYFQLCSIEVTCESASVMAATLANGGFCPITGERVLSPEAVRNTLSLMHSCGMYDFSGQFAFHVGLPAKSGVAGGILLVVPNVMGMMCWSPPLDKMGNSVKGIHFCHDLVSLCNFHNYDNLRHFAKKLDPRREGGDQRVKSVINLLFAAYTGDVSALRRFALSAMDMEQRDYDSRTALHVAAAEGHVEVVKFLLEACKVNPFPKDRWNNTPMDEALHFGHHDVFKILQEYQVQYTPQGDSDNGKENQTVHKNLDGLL
Description: (§1) The molecular structure of specific compounds is described as follows: […]

A 549 lung cancer cells = assay: Inhibition of A549 lung cancer cells; assay type: cell-based; settings: for A549 Max-INH: maximal inhibition; for IC50: Homo sapiens
Description: as §1

GDH = GDH (Homo sapiens, UniProt P00367); assay: GDH inhibition IC50; assay type: biochemical
[1] = A549 cells, read-out: A549 IC50

Chain of GDH (P00367 54-558): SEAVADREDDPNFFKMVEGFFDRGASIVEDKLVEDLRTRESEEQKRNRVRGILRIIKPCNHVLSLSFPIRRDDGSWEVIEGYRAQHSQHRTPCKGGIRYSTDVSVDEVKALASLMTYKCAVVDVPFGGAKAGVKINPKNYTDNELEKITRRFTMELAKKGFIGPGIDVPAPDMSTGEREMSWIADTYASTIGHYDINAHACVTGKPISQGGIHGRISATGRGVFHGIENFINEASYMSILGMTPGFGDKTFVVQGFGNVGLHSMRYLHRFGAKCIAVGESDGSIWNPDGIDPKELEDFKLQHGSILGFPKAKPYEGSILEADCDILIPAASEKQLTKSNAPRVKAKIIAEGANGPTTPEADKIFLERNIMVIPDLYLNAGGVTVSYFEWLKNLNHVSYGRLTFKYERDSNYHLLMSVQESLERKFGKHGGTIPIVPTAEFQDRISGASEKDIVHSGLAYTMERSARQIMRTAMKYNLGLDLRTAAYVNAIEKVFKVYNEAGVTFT

Row | melting point | IC50 (A 549 lung cancer cells; A549, read-out: A549 IC50) | Compound | IC50 (KGA) | A549 Max-INH (A 549 lung cancer cells; A549 cells) | IC50 (A 549 lung cancer cells; [1]) | IC50 (GDH) | IC50 (KGA; read-out: KGA IC50)
1 | 130 to 132 °C | – | c1ccc(Nc2nnc(Cc3nnc(Nc4ccccc4)[se]3)[se]2)cc1 | – | – | – | – | –
2 | 160 to 161 °C | – | c1ccc(Nc2nnc(CCc3nnc(Nc4ccccc4)[se]3)[se]2)cc1 | – | – | – | – | –
3 | 198 to 201 °C | – | c1ccc(Nc2nnc(CCCc3nnc(Nc4ccccc4)[se]3)[se]2)cc1 | – | – | – | – | –
4 | 165 to 171 °C | – | c1ccc(Nc2nnc(CCCCCc3nnc(Nc4ccccc4)[se]3)[se]2)cc1 | – | – | – | – | –
5 | 109 to 110 °C | – | ClCCc1nnc(Nc2ccccc2)[se]1 | – | – | – | – | –
6 | 109 to 110 °C | – | ClCCc1nnc(NCc2ccccc2)[se]1 | – | – | – | – | –
7 | 109 to 110 °C | – | ClCCc1nnc(NCCc2ccccc2)[se]1 | – | – | – | – | –
8 | 109 to 110 °C | – | N=C(N)NCc1nnc(Nc2ccccc2)[se]1 | – | – | – | – | –
9 | 172 to 174 °C | – | c1ccc(Nc2nnc(CCSCCc3nnc(Nc4ccccc4)[se]3)[se]2)cc1 | – | – | – | – | –

Continued, compound first:

Row | Compound | melting point | IC50 (A 549 lung cancer cells; A549, read-out: A549 IC50) | IC50 (KGA) | A549 Max-INH (A 549 lung cancer cells; A549 cells) | IC50 (A 549 lung cancer cells; [1]) | IC50 (GDH) | IC50 (KGA; read-out: KGA IC50)
10 | Cn1cc(CC(=O)Nc2nnc(CCSCCc3nnc(N)[se]3)[se]2)c2ccccc21 | – | – | 110 nM | 84% | 2050 nM | > 10000 nM | –
11 | Cn1cc(CC(=O)Nc2nnc(CCSCCc3nnc(N)s3)s2)c2ccccc21 | – | – | – | 55% | 9700 nM | > 10000 nM | 140 nM
12 | Cn1cc(CC(=O)Nc2nnc(CCSCCc3nnc(NC(=O)Cc4cn(C)c5ccccc45)[se]3)[se]2)c2ccccc21 | – | – | – | 90% | 160 nM | > 10000 nM | 27 nM
13 | Cn1cc(CC(=O)Nc2nnc(CCSCCc3nnc(NC(=O)Cc4cn(C)c5ccccc45)s3)s2)c2ccccc21 | – | – | – | 80% | 820 nM | > 10000 nM | 280 nM
14 | Cn1ccc(CC(=O)Nc2nnc(CCSCCc3nnc(N)[se]3)[se]2)c1 | – | – | 210 nM | 40% | > 10000 nM | > 10000 nM | –
15 | Cn1ccc(CC(=O)Nc2nnc(CCSCCc3nnc(N)s3)s2)c1 | – | – | – | 0% | > 10000 nM | > 10000 nM | 570 nM
16 | Cn1ccc(CC(=O)Nc2nnc(CCSCCc3nnc(NC(=O)Cc4ccn(C)c4)[se]3)[se]2)c1 | – | – | – | 91% | 3100 nM | > 10000 nM | 60 nM
17 | Cn1ccc(CC(=O)Nc2nnc(CCSCCc3nnc(NC(=O)Cc4ccn(C)c4)s3)s2)c1 | – | – | – | 80% | 6500 nM | > 10000 nM | 130 nM
18 | Nc1nnc(CCSCCc2nnc(NC(=O)Cc3ccccc3)[se]2)[se]1 | – | – | 1400 nM | 62% | 6300 nM | > 10000 nM | –
19 | O=C(Cc1ccccc1)Nc1nnc(CCSCCc2nnc(NC(=O)Cc3ccccc3)[se]2)[se]1 | – | – | – | 66% | 300 nM | > 10000 nM | 60 nM
20 | O=C(Cc1ccccc1)Nc1nnc(CCSCCc2nnc(NC(=O)Cc3ccccc3)s2)s1 | – | – | – | 75% | 870 nM | – | –
21 | Nc1nnc(CCSCCc2nnc(NC(=O)C34CC5CC(CC(C5)C3)C4)[se]2)[se]1 | – | – | 4000 nM | 17% | > 10000 nM | > 10000 nM | –
22 | O=C(Nc1nnc(CCSCCc2nnc(NC(=O)C34CC5CC(CC(C5)C3)C4)[se]2)[se]1)C12CC3CC(CC(C3)C1)C2 | – | – | 1900 nM | 17% | > 10000 nM | > 10000 nM | –
23 | O=C(Cc1cccc(OC(F)(F)F)c1)Nc1ccc(CCCCc2nnc(NC(=O)Cc3ccccn3)[se]2)nn1 | – | – | – | 77% | 17 nM | > 10000 nM | 1 nM
24 | O=C(Cc1cccc(OC(F)(F)F)c1)Nc1ccc(CCCCc2nnc(NC(=O)Cc3ccccn3)s2)nn1 | – | 40 nM | – | 70% | – | > 10000 nM | –
25 | Cn1cc(CC(=O)Nc2nnc(CCCCc3ccc(NC(=O)Cc4cccc(OC(F)(F)F)c4)nn3)[se]2)c2ccccc21 | – | – | – | 90% | 17 nM | > 10000 nM | 1 nM
26 | COc1ccc2c(c1)c(CC(=O)Nc1nnc(CCCCc3ccc(NC(=O)Cc4cccc(OC(F)(F)F)c4)nn3)[se]1)cn2C | – | – | – | 90% | 10 nM | > 10000 nM | 5 nM
